BindingDB's records for doi:10.1016/j.bmc.2009.08.052 (Okayama University, 2009)

Experiments:
[1] = biological target: Beta-hexosaminidase (Homo sapiens); assay: Inhibition of human placenta beta-N-acetylglucosaminidase by pNP-GlcNAc substrate hydrolysis assay
[2] = biological target: Beta-hexosaminidase (Homo sapiens); assay: Mixed type inhibition of human placenta beta-N-acetylglucosaminidase by pNP-GlcNAc substrate hydrolysis assay

SMILES: CC(=O)NC[C@H]1[C@H](O)[C@H](O)[C@@H]2[C@H](O)C[C@@H](CO)N21 [(1R*, 3S*, 5S*, 6S*, 7R*, 7a S*)-5-acetamidomethyl-3-hydroxymethyl-1,6,7-trihydroxypyrrolizidine]
- IC50 [1]: 2.39 nM
- Ki [2]: 1.25 nM
